According to patent publication US20210270801A1, “TOPOGRAPHICALLY GUIDED CELL MIGRATION DEVICES AND METHODS” (priority 2018, published 2021):

Test system: MCF10A cells
Experiment: Impedimetric collective cell migration assay with proliferation inhibitor
Type: cell-based
Settings: 1 ng/ml
Procedure: In experiments designed to validate the proper functioning of devices, systems and methods for CMAPs of the present disclosure, MCF10A cells, a non-tumorigenic mammary epithelial cell line, were chosen as the cell model to validate whether a Nafion-nanotextured substrate is suitable for cell growth and migration. Cell monolayers were grown to cover a half of the area of each well to achieve a uniform condition at the beginning of the experiment. An elastomeric silicone (polydimethylsiloxane or PDMS) block was attached to the Nafion-patterned surface in each well, and then the MCF10A cells were seeded into the notch of the PDMS block at a seeding density of 20,000 cells per well. After 24 hours of incubation, the cells grew into a cell monolayer in the cell-seeding region and the PDMS block in each well was removed to initiate an impedimetric recording of collective cell migration. Cells migrated collectively as a cell sheet in a migration direction toward the other side of the well along the direction of nanogrooves and reached the end of the nanotextured migration area after 60-hour of migration.
Additional validation studies were carried out to determine whether collective cell migration behaviors are affected by the nanotextured cell-interface surface, which mimics the topography of in vivo cell migration microenvironment. MCF10A cells were grown on both nanotextured and untextured surfaces and the distances between the cell sheet border at 0 hour and 60 hours were measured.
Identifying effective drugs that target tumor metastasis is one of the ultimate goals of cancer migration assays. For this reason, a CMAP of the present disclosure was used to assess its capability to detect drug effects by using widely applied inhibitors. In this experiment, 1 ng/ml mitomycin C was used to inhibit MCF10A cell proliferation to determine whether collective cell migration is still faster on Nafion-nanotextured surfaces than on the untextured surfaces, after eliminating proliferation as a confounding factor.

## CO[C@@]12[C@H](COC(N)=O)C3=C(C(=O)C(C)=C(N)C3=O)N1C[C@@H]1N[C@@H]12 [mitomycin C]
Nafion-nanotextured (NP) surface, compared with UP untreated, P<0.05
  collective migration: continued to migrate with alacrity, even outpacing their UP untreated counterparts
Both nanotextured (NP) and untextured (UP) groups, impedance at 10 kHz
  collective migration after proliferation inhibition: substantially slowed but did not inhibit collective migration
Untextured (UP) surface
  collective migration / change in impedance over the duration: migrated minimally as expected with no significant change in impedance
